Data on 2 compounds can be found in ChEMBL document CHEMBL1909046, “DrugMatrix in vitro pharmacology data”.

Cytochrome P450 2C9, sequence (P11712 whole entry): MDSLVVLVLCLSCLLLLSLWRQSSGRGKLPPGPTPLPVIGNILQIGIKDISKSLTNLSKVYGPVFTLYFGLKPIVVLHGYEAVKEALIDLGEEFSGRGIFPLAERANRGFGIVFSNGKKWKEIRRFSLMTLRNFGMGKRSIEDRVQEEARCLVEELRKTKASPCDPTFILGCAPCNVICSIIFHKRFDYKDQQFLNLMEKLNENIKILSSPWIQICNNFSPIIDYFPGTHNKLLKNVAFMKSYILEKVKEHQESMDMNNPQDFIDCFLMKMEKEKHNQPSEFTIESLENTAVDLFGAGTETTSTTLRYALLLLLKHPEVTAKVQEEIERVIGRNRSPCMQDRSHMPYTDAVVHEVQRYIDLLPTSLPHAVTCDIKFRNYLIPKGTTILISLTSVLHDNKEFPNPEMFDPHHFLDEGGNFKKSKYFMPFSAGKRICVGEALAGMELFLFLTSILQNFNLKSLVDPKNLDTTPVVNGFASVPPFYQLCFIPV
Beta-2 adrenergic receptor, sequence (P07550 whole entry): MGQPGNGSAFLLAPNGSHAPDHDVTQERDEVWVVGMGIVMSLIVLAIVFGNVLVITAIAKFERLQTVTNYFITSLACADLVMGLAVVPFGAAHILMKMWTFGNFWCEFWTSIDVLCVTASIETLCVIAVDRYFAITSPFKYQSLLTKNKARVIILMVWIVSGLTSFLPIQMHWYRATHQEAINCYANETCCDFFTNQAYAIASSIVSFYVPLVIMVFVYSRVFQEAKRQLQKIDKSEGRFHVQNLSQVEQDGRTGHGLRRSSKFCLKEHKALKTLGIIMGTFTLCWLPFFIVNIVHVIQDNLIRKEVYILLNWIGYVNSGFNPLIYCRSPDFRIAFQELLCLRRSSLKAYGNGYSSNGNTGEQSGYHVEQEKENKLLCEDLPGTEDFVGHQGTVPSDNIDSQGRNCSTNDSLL

One data set addresses T1, Alpha-2C adrenergic receptor (Homo sapiens, UniProt P18825).
T1 sequence (P18825 whole entry): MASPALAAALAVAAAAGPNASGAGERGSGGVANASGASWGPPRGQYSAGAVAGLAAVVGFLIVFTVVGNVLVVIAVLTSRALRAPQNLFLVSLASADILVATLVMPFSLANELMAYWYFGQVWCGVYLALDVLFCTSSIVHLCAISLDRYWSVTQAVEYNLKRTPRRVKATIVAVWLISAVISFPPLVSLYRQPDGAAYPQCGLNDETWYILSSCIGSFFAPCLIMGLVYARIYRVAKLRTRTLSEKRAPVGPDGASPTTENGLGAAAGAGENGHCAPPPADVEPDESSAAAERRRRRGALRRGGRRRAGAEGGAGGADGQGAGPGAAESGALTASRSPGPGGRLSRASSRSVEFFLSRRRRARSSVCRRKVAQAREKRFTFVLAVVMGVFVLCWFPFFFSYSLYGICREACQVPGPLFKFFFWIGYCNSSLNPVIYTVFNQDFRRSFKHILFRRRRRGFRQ
The experiment in a line: DRUGMATRIX: Adrenergic Alpha-2C radioligand binding (ligand: [3H] MK-912). It counts as cell membranes, Sf9, Membrane. The note with it: sf9.
`Cc1[nH]cnc1CN1CCc2c(c3ccccc3n2C)C1=O` [ALOSETRON]: the IC50 result is listed as “Not Active”.

On to `CN(C)[C@@H]1C(O)=C(C(N)=O)C(=O)[C@@]2(O)C(O)=C3C(=O)c4c(O)cccc4[C@@](C)(O)[C@H]3[C@H](O)[C@@H]12` [OXYTETRACYCLINE], for which the IC50 entry is reported as “Not Active”.

For another data set, the target named is T2, 5-hydroxytryptamine receptor 1A (Rattus norvegicus, UniProt P19327). Also: in other assays of this panel Not Active means under 50% inhibition at 10 µM.
T2 sequence (P19327 whole entry): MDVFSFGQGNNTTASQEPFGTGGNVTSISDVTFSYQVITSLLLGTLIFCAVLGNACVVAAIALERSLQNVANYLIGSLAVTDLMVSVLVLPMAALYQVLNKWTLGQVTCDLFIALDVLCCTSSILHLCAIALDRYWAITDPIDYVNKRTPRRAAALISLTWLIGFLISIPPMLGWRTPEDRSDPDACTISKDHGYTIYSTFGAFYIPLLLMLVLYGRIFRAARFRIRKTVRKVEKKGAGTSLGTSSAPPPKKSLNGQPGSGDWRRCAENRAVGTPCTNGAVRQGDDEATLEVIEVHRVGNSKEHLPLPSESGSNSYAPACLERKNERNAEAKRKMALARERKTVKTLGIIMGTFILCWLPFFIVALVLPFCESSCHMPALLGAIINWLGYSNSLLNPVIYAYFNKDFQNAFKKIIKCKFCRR
The data set is classed as cell membranes, CHO-K1, Membrane. The conditions noted are these: cho-k1.
Consider `Cc1[nH]cnc1CN1CCc2c(c3ccccc3n2C)C1=O` [ALOSETRON], for which the IC50 result is listed as “Not Active”.

In the case of `CN(C)[C@@H]1C(O)=C(C(N)=O)C(=O)[C@@]2(O)C(O)=C3C(=O)c4c(O)cccc4[C@@](C)(O)[C@H]3[C@H](O)[C@@H]12` [OXYTETRACYCLINE], the IC50 entry is on record as “Not Active”.

System in the next data set: not listed separately
Put plainly: DRUGMATRIX: Phosphodiesterase PDE3 enzyme inhibition (substrate: [3H]cAMP + cAMP). The conditions noted are these: platelet; Not Active = under 50% inhibition at 10 µM. The data set is classed as tissue-based, Homo sapiens.
In the case of `Cc1[nH]cnc1CN1CCc2c(c3ccccc3n2C)C1=O` [ALOSETRON], the IC50 entry was “Not Active” and the Ki result is given as “Not Active”.

Consider `CN(C)[C@@H]1C(O)=C(C(N)=O)C(=O)[C@@]2(O)C(O)=C3C(=O)c4c(O)cccc4[C@@](C)(O)[C@H]3[C@H](O)[C@@H]12` [OXYTETRACYCLINE], for which the IC50 result is “Not Active” and the Ki entry is “Not Active”.

System in the next data set: not listed separately
Put plainly: DRUGMATRIX: GABAA, Flunitrazepam, Central radioligand binding (ligand: [3H] Flunitrazepam). The data set is classed as cell membranes, Rattus norvegicus, Wistar, Brain, Membrane. The note with it: Not Active = under 50% inhibition at 10 µM.
Take `Cc1[nH]cnc1CN1CCc2c(c3ccccc3n2C)C1=O` [ALOSETRON]: the IC50 result is listed as “Not Active” and the Ki result is listed as “Not Active”.

Take `CN(C)[C@@H]1C(O)=C(C(N)=O)C(=O)[C@@]2(O)C(O)=C3C(=O)c4c(O)cccc4[C@@](C)(O)[C@H]3[C@H](O)[C@@H]12` [OXYTETRACYCLINE]: the IC50 result is “Not Active” and the Ki entry is on record as “Not Active”.

The next data set deals with Sodium-dependent noradrenaline transporter (Homo sapiens, UniProt P23975). Put plainly: DRUGMATRIX: Norepinephrine Transporter radioligand binding (ligand: [125I] RTI-55). The data set is classed as cell membranes, MDCK, Membrane. The note with it: mdck; Not Active = under 50% inhibition at 10 µM.
Sodium-dependent noradrenaline transporter, sequence (P23975 whole entry): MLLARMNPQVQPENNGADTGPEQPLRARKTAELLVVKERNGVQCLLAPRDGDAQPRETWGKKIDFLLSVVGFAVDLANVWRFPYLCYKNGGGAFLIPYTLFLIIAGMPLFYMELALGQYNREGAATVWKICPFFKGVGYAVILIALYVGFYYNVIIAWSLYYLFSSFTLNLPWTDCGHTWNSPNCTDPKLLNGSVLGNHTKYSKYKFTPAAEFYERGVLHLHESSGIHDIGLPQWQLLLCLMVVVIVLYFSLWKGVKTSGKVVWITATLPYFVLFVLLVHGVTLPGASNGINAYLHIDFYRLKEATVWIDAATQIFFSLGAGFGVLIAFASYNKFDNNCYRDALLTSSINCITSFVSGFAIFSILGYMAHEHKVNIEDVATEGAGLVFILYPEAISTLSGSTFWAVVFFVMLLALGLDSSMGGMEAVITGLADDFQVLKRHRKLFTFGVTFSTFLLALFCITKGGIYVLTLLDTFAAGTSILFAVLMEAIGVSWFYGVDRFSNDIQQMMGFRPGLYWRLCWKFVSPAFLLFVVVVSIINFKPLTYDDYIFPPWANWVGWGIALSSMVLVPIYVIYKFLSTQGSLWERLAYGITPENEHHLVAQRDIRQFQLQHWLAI
As to `Cc1[nH]cnc1CN1CCc2c(c3ccccc3n2C)C1=O` [ALOSETRON], the IC50 result is given as “Not Active”.

For the compound `CN(C)[C@@H]1C(O)=C(C(N)=O)C(=O)[C@@]2(O)C(O)=C3C(=O)c4c(O)cccc4[C@@](C)(O)[C@H]3[C@H](O)[C@@H]12` [OXYTETRACYCLINE], the IC50 entry is given as “Not Active”.

A further data set addresses Beta-2 adrenergic receptor (Homo sapiens, UniProt P07550). The experiment in a line: DRUGMATRIX: Adrenergic beta2 radioligand binding (ligand: [3H] CGP-12177). It counts as cell membranes, Membrane. The conditions noted are these: cho; Not Active = under 50% inhibition at 10 µM.
`Cc1[nH]cnc1CN1CCc2c(c3ccccc3n2C)C1=O` [ALOSETRON]: the IC50 entry is “Not Active”.

For `CN(C)[C@@H]1C(O)=C(C(N)=O)C(=O)[C@@]2(O)C(O)=C3C(=O)c4c(O)cccc4[C@@](C)(O)[C@H]3[C@H](O)[C@@H]12` [OXYTETRACYCLINE], the IC50 result is recorded as “Not Active”.

System in another data set: not listed separately
The experiment in a line: DRUGMATRIX: Atrial Natriuretic Factor (ANF) radioligand binding (ligand: [125I] ANF (rat)). It counts as cell membranes, Cavia porcellus, Dunkin-Hartley, Adrenal gland, Membrane. The note with it: Not Active = under 50% inhibition at 10 µM.
Take `Cc1[nH]cnc1CN1CCc2c(c3ccccc3n2C)C1=O` [ALOSETRON]: the IC50 entry is “Not Active” and the Ki entry is “Not Active”.

Take `CN(C)[C@@H]1C(O)=C(C(N)=O)C(=O)[C@@]2(O)C(O)=C3C(=O)c4c(O)cccc4[C@@](C)(O)[C@H]3[C@H](O)[C@@H]12` [OXYTETRACYCLINE]: the IC50 result is “Not Active” and the Ki entry is listed as “Not Active”.

Another data set deals with T3, Endothelin-1 receptor (Homo sapiens, UniProt P25101).
T3 sequence (P25101 whole entry): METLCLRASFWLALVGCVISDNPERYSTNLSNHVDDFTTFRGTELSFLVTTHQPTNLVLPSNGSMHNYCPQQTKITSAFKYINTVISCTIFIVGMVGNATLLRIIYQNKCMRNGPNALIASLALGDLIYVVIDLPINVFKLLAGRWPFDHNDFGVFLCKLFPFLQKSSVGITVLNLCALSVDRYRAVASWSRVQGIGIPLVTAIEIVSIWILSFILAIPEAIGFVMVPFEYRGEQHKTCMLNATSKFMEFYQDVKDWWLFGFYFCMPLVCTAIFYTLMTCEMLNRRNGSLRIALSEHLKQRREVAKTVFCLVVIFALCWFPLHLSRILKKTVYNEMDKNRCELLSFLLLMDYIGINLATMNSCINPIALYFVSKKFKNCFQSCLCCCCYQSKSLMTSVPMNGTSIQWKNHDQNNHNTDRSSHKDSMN
It counts as cell membranes, Membrane. The conditions noted are these: cho-k1.
On to `Cc1[nH]cnc1CN1CCc2c(c3ccccc3n2C)C1=O` [ALOSETRON], for which the IC50 entry was “Not Active”.

On to `CN(C)[C@@H]1C(O)=C(C(N)=O)C(=O)[C@@]2(O)C(O)=C3C(=O)c4c(O)cccc4[C@@](C)(O)[C@H]3[C@H](O)[C@@H]12` [OXYTETRACYCLINE], for which the IC50 result is reported as “Not Active”.

System in the next data set: not listed separately
The experiment in a line: DRUGMATRIX: Calcium Channel Type L, Dihydropyridine radioligand binding (ligand: [3H] Nitrendipine). The note with it: Not Active = under 50% inhibition at 10 µM. It counts as cell membranes, Rattus norvegicus, Wistar, Cerebral cortex, Membrane.
Regarding `Cc1[nH]cnc1CN1CCc2c(c3ccccc3n2C)C1=O` [ALOSETRON], the IC50 entry was “Not Active” and the Ki entry is on record as “Not Active”.

With `CN(C)[C@@H]1C(O)=C(C(N)=O)C(=O)[C@@]2(O)C(O)=C3C(=O)c4c(O)cccc4[C@@](C)(O)[C@H]3[C@H](O)[C@@H]12` [OXYTETRACYCLINE], the IC50 entry is reported as “Not Active” and the Ki entry was “Not Active”.

The target of the next data set is Kappa-type opioid receptor (Homo sapiens, UniProt P41145). The experiment in a line: DRUGMATRIX: Opiate kappa (OP2, KOP) radioligand binding (ligand: [3H] Diprenorphine). It counts as cell membranes, HEK293, Membrane. The conditions noted are these: hek293; Not Active = under 50% inhibition at 10 µM.
Kappa-type opioid receptor, sequence (P41145 whole entry): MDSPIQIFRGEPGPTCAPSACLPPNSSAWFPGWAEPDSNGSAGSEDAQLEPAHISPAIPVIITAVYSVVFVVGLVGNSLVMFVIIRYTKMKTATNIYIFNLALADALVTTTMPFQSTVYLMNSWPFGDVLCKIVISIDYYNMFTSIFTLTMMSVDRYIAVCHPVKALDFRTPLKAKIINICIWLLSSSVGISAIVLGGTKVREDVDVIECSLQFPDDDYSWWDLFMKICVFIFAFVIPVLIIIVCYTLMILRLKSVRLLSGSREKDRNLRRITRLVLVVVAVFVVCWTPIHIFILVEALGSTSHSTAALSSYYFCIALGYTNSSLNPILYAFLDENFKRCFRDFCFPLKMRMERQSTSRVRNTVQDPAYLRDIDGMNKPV
With `Cc1[nH]cnc1CN1CCc2c(c3ccccc3n2C)C1=O` [ALOSETRON], the IC50 result is “Not Active”.

As to `CN(C)[C@@H]1C(O)=C(C(N)=O)C(=O)[C@@]2(O)C(O)=C3C(=O)c4c(O)cccc4[C@@](C)(O)[C@H]3[C@H](O)[C@@H]12` [OXYTETRACYCLINE], the IC50 entry is “Not Active”.

In a further data set the target is Cannabinoid receptor 1 (Homo sapiens, UniProt P21554). The data set is classed as cell membranes, Membrane. The conditions noted are these: chem-1. Also: in other assays of this panel Not Active means under 50% inhibition at 10 µM.
Cannabinoid receptor 1, sequence (P21554 whole entry): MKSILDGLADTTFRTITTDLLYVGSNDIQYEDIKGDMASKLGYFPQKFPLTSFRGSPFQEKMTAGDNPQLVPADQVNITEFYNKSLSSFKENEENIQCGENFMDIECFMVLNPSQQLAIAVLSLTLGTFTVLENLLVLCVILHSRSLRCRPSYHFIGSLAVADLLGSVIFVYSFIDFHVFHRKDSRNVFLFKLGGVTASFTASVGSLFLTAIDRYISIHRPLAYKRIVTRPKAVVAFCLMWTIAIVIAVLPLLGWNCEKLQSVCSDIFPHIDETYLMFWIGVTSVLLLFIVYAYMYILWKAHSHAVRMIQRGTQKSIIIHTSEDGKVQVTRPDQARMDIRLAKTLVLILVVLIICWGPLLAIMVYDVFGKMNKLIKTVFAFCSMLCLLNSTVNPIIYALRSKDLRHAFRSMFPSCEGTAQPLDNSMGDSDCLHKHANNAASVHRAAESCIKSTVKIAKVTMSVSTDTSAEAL
As to `Cc1[nH]cnc1CN1CCc2c(c3ccccc3n2C)C1=O` [ALOSETRON], the IC50 entry was “Not Active”.

`CN(C)[C@@H]1C(O)=C(C(N)=O)C(=O)[C@@]2(O)C(O)=C3C(=O)c4c(O)cccc4[C@@](C)(O)[C@H]3[C@H](O)[C@@H]12` [OXYTETRACYCLINE]: the IC50 entry is given as “Not Active”.

The next data set concerns the target Cytochrome P450 2C9 (Homo sapiens, UniProt P11712). The conditions noted are these: bti-tn-5b1-4. Also: in other assays of this panel Not Active means under 50% inhibition at 10 µM.
With `Cc1[nH]cnc1CN1CCc2c(c3ccccc3n2C)C1=O` [ALOSETRON], the IC50 result was “Not Active” and the Ki entry is given as “Not Active”.

In the case of `CN(C)[C@@H]1C(O)=C(C(N)=O)C(=O)[C@@]2(O)C(O)=C3C(=O)c4c(O)cccc4[C@@](C)(O)[C@H]3[C@H](O)[C@@H]12` [OXYTETRACYCLINE], the IC50 entry is recorded as “Not Active” and the Ki result is given as “Not Active”.

The target in the next data set is Protein phosphatase 3 catalytic subunit alpha (Homo sapiens, UniProt Q08209). The arrangement: species or system Escherichia coli.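 Also: inhibition of calcineurin (PP2B) enzyme activity, measured with DiFMUP as the substrate; in other assays of this panel Not Active means under 50% inhibition at 10 µM.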
Conditions: not given
For `Cc1[nH]cnc1CN1CCc2c(c3ccccc3n2C)C1=O` [ALOSETRON], the IC50 entry is “Not Active”.

`CN(C)[C@@H]1C(O)=C(C(N)=O)C(=O)[C@@]2(O)C(O)=C3C(=O)c4c(O)cccc4[C@@](C)(O)[C@H]3[C@H](O)[C@@H]12` [OXYTETRACYCLINE]: the IC50 entry was “Not Active”.

A further data set concerns the target T4, Muscarinic acetylcholine receptor M2 (Homo sapiens, UniProt P08172). Also: in other assays of this panel Not Active means under 50% inhibition at 10 µM.
T4 sequence (P08172 whole entry): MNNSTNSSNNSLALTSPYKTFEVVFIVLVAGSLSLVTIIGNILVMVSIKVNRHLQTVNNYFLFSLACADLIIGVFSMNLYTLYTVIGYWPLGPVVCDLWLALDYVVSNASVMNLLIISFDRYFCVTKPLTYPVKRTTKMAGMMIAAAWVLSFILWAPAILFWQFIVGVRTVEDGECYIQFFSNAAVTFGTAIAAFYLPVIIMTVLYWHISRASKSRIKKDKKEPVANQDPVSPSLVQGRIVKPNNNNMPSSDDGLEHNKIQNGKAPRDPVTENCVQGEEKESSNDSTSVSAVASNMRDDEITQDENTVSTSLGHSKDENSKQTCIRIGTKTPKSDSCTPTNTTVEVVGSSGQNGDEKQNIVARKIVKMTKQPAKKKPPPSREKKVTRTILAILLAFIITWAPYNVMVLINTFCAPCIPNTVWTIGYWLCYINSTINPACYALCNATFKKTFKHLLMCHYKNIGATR
The data set is classed as cell membranes, CHO-K1, Membrane. The conditions noted are these: cho-k1.
As for `Cc1[nH]cnc1CN1CCc2c(c3ccccc3n2C)C1=O` [ALOSETRON], the IC50 entry was “Not Active”.

For the compound `CN(C)[C@@H]1C(O)=C(C(N)=O)C(=O)[C@@]2(O)C(O)=C3C(=O)c4c(O)cccc4[C@@](C)(O)[C@H]3[C@H](O)[C@@H]12` [OXYTETRACYCLINE], the IC50 entry is recorded as “Not Active”.
